From patent US11512280B2, “Method for culturing spore-forming bacteria, and method for producing useful substance” (priority 2016, dated 2022)

Tests used:
Format in all cases: cell-based
[1] = system: Bacillus subtilis MBI-600; assay: Culture of Bacillus subtilis with sporulation-inhibiting substance, 64 hours (Example 1)
Description: Using a 500 ml Erlenmeyer flask (with baffles), each 100 ml of media listed in Table 1 was prepared and then autoclave sterilization was carried out. Glucose was separately sterilized and aseptically mixed in order to avoid Maillard reaction.
According to the conditions of each test section, the filter-sterilized aqueous solution of each sporulation-inhibiting substance was added aseptically to each medium. One loopful of Bacillus subtilis MBI-600 was taken from a colony grown on a nutrient agar medium, inoculated, and then cultured with shaking at 30° C. and 150 rpm for 64 hours.
(§1) Each of the thus obtained culture liquid was diluted 10-fold with sterile water, and then the bacterial cell concentration (vegetative cells and spores) and the sporulation rate (spore concentration/bacterial cell concentration) were measured using an optical microscope and a bacterial cell counter.

[2] = system: Bacillus subtilis MBI-600; assay: Culture of Bacillus subtilis with sporulation-inhibiting and sporulation-accelerating substances, 45 hours (Example 2); conditions: for Bacterial cell concentration / Spore concentration / Sporulation rate: 45 hours
Description: (§2) Using a 500 ml Erlenmeyer flask (with baffles), each 100 ml of media listed in Table 1 was prepared and then autoclave sterilization was carried out. Note that glucose was separately sterilized and aseptically mixed in order to avoid Maillard reaction.
Test sections were set as described in Table 3. According to the conditions of each test section, the filter-sterilized aqueous solution of each sporulation-inhibiting substance was added aseptically to each medium. According to the conditions of each test section, one loopful of Bacillus subtilis MBI-600 was taken from a colony grown on a nutrient agar medium, inoculated, and then cultured with shaking at 30° C. and 150 rpm.
Sixteen (16) hours after the start of culture, each sporulation-accelerating substance was added according to the conditions of each test section, culture was continued. Forty-five (45) hours after the start of culture, culture was stopped.
as §1

[3] = system: Bacillus thuringiensis NBRC 101235 strain; assay: Culture of Bacillus thuringiensis with sporulation-inhibiting substance, 40 hours (Example 3); conditions: for Bacterial cell concentration / Spore concentration / Sporulation rate: 40 hours culture
Description: as §2
According to the conditions of each test section, the filter-sterilized aqueous solution of each sporulation-inhibiting substance was added aseptically to each medium. According to the conditions of each test section, one loopful of Bacillus thuringiensis NBRC 101235 strain was taken from a colony grown on a nutrient agar medium, inoculated, and then cultured with shaking at 30° C. and 150 rpm for 40 hours.
as §1

[4] = 0.1 ppm added, 64 hours culture
[5] = 1.0 ppm added, 64 hours culture
[6] = trend over tested concentrations
[7] = 0.3 ppm plus ammonium lactate 3,000 ppm at 16 hours
[8] = 0.3 ppm, no accelerating substance
[9] = 0.5 ppm plus ammonium acetate 2,000 ppm at 16 hours
[10] = 0.5 ppm plus ammonium acetate 3,000 ppm at 16 hours
[11] = 0.5 ppm plus ammonium acetate 4,000 ppm at 16 hours
[12] = 0.5 ppm plus ammonium lactate 3,000 ppm at 16 hours
[13] = 0.5 ppm, no accelerating substance
[14] = 1.0 ppm, no accelerating substance
[15] = 2.0 ppm, no accelerating substance

Question: Which “effect of inhibiting sporulation” value ([1]; 0.1 ppm) does the source give for `CCC[C@@H]1C[C@@H](C(=O)N[C@@H]([C@H]2O[C@H](SC)[C@H](O)[C@@H](O)[C@H]2O)[C@@H](C)O)N(C)C1` [Lincomycin] here?
Answer: The value was “not observed”.

Question: And the Spore concentration [1, 4]?
Answer: The Spore concentration was 4.7e+09 mL⁻¹.

Question: What about the Sporulation rate [1, 4] of the same compound?
Answer: The Sporulation rate was 100%.

Question: What about the Bacterial cell concentration ([1]; 0.1 ppm added, 64 hours culture, carbon content 9.1 g/L) of the same compound?
Answer: The Bacterial cell concentration was 4.7e+09 mL⁻¹.

Question: And the “effect of inhibiting sporulation” value ([1]; 1 ppm)?
Answer: Its value is “observed”.

Question: What about the Bacterial cell concentration [1, 5] of the same compound?
Answer: The Bacterial cell concentration was 7e+09 mL⁻¹.

Question: What about the Sporulation rate [1, 5] of the same compound?
Answer: The Sporulation rate was 0%.

Question: And the “bacterial cell concentrations as the concentration of the substance increased” value [1, 6]?
Answer: Its value is “tended to increase”.

Question: What about the “effect of inhibiting sporulation” value ([2]; 0.3 ppm) of the same compound?
Answer: The value was “not observed”.

Question: What about the Bacterial cell concentration [2, 7] of the same compound?
Answer: Its Bacterial cell concentration is 5.6e+09 mL⁻¹.

Question: And the Spore concentration [2, 7]?
Answer: Its Spore concentration is 5.1e+09 mL⁻¹.

Question: What about the Sporulation rate [2, 7] of the same compound?
Answer: The Sporulation rate was 91%.

Question: What about the Bacterial cell concentration [2, 8] of the same compound?
Answer: The Bacterial cell concentration was 3.3e+09 mL⁻¹.

Question: And the Spore concentration [2, 8]?
Answer: Its Spore concentration is 2.7e+09 mL⁻¹.

Question: What about the Sporulation rate [2, 8] of the same compound?
Answer: Its Sporulation rate is 80%.

Question: What about the “effect of inhibiting sporulation” value ([2]; 0.5 ppm or more) of the same compound?
Answer: Its value is “observed”.

Question: And the Bacterial cell concentration [2, 9]?
Answer: Its Bacterial cell concentration is 6.4e+09 mL⁻¹.

Question: And the Spore concentration [2, 9]?
Answer: Its Spore concentration is 4.1e+09 mL⁻¹.

Question: And the Sporulation rate [2, 9]?
Answer: Its Sporulation rate is 64%.

Question: What about the Bacterial cell concentration [2, 10] of the same compound?
Answer: Its Bacterial cell concentration is 7.6e+09 mL⁻¹.

Question: And the Spore concentration [2, 10]?
Answer: Its Spore concentration is 5.4e+09 mL⁻¹.

Question: And the Sporulation rate [2, 10]?
Answer: The Sporulation rate was 71%.

Question: What about the Bacterial cell concentration [2, 11] of the same compound?
Answer: The Bacterial cell concentration was 8.4e+09 mL⁻¹.

Question: What about the Spore concentration [2, 11] of the same compound?
Answer: Its Spore concentration is 6.1e+09 mL⁻¹.

Question: And the Sporulation rate [2, 11]?
Answer: The Sporulation rate was 72%.

Question: And the Bacterial cell concentration [2, 12]?
Answer: The Bacterial cell concentration was 7.2e+09 mL⁻¹.

Question: What about the Spore concentration [2, 12] of the same compound?
Answer: The Spore concentration was 5.7e+09 mL⁻¹.

Question: What about the Sporulation rate [2, 12] of the same compound?
Answer: Its Sporulation rate is 79%.

Question: What about the Bacterial cell concentration [2, 13] of the same compound?
Answer: The Bacterial cell concentration was 4.4e+09 mL⁻¹.

Question: What about the Sporulation rate [2, 13] of the same compound?
Answer: Its Sporulation rate is 0%.

Question: What about the Bacterial cell concentration [2, 14] of the same compound?
Answer: The Bacterial cell concentration was 5.1e+09 mL⁻¹.

Question: What about the Sporulation rate [2, 14] of the same compound?
Answer: The Sporulation rate was 0%.

Question: And the Bacterial cell concentration [2, 15]?
Answer: The Bacterial cell concentration was 5.9e+09 mL⁻¹.

Question: And the Sporulation rate [2, 15]?
Answer: The Sporulation rate was 0%.

Question: What about the “bacterial cell concentrations as the concentration of the substance increased” value [2, 6] of the same compound?
Answer: Its value is “tended to increase”.

Question: What about the Bacterial cell concentration ([3]; 5.0 ppm) of the same compound?
Answer: The Bacterial cell concentration was 1.4e+09 mL⁻¹.

Question: And the Spore concentration ([3]; 5.0 ppm)?
Answer: Its Spore concentration is 1.2e+09 mL⁻¹.

Question: And the Sporulation rate ([3]; 5.0 ppm)?
Answer: Its Sporulation rate is 86%.

Question: And the “bacterial cell concentration and spore concentration” value ([3]; 10.0 ppm or lower)?
Answer: The value was “tended to increase”.

Question: And the Bacterial cell concentration ([3]; 10.0 ppm)?
Answer: Its Bacterial cell concentration is 1.4e+09 mL⁻¹.

Question: What about the Spore concentration ([3]; 10.0 ppm) of the same compound?
Answer: Its Spore concentration is 1e+09 mL⁻¹.

Question: What about the Sporulation rate ([3]; 10.0 ppm) of the same compound?
Answer: Its Sporulation rate is 71%.

Question: What about the “effect of inhibiting sporulation” value ([3]; 12.5 ppm) of the same compound?
Answer: Its value is “confirmed”.

Question: And the Bacterial cell concentration ([3]; 12.5 ppm)?
Answer: The Bacterial cell concentration was 9e+08 mL⁻¹.

Question: And the Spore concentration ([3]; 12.5 ppm)?
Answer: Its Spore concentration is 1e+08 mL⁻¹.

Question: What about the Sporulation rate ([3]; 12.5 ppm) of the same compound?
Answer: The Sporulation rate was 13%.
